# pIC50: −log10 of the molar value.
# Target: MetAP-2 (Homo sapiens, UniProt P50579)
# Experiment: MetAP-2 activity measurement (coupled enzymatic reactions, substrate Met-Arg-Ser, photometric at 450 nm)
# Type: biochemical
# Details: read-out: IC50 enzyme (Inhibition of MetAP-2)
# Summary of the method: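 Human MetAP-2 cleaves Met-Arg-Ser; the freed methionine is oxidized by L-amino acid oxidase, and the resulting H2O2 drives peroxidase oxidation of dianisidine, read continuously at 450 nm. Activity is taken as the slope in the visually linear region.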
# Sequence of MetAP-2 (P50579 whole entry, species assumed): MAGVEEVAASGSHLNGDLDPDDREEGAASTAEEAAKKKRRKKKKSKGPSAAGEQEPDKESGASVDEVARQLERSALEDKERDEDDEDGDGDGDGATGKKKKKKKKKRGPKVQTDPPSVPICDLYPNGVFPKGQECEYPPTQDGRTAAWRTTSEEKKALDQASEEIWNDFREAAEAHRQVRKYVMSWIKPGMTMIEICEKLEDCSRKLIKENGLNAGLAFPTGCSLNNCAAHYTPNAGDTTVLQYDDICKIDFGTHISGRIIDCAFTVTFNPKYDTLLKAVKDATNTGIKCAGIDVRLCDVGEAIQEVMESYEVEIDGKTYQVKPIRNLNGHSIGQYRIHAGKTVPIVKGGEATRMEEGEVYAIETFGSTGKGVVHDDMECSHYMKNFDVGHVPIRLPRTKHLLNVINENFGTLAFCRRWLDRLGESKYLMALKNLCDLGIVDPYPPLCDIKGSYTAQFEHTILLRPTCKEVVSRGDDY
row,SMILES,pIC50
1,"O=Cc1ccc(OC[C@H]2CCCN2c2ncnc3[nH]cnc23)c2ccccc12 [A2, 4-[(R)-1-(9H-purin-6-yl)pyrrolidin-2-ylmethoxy]naphthalene-1-carbaldehyde]",6.00 to 8.00
2,"F[C@H]1C[C@H](COc2ccccc2Cl)N(c2ncnc3[nH]cnc23)C1 [A7, 6-[(2R,4S)-2-(2-chlorophenoxymethyl)-4-fluoropyrrolidin-1-yl]-9H-purine]",5.00 to 6.00
3,"O=C(O)CC[C@H](NC(=O)O)C(=O)Nc1ccc2cccc(OC[C@H]3CCCN3c3ncnc4[nH]cnc34)c2c1 [A183, (S)-4-Carboxyamino-4-{8-[(R)-1-(9H-purin-6-yl)-pyrrolidin-2-ylmethoxy]naphthalen-2-yl-carbamoyl}butyric acid]",< 5.00
4,"CCOC(=O)c1c(OC[C@H]2CCCN2c2ncnc3[nH]cnc23)c2cc(F)ccc2n1C [A184, Ethyl 5-fIuoro-1-methyl-3-[(R)-1-(9H-purin-6-yl)-pyrrolidin-2-ylmethoxy]-1H-indole-2-carboxylate]",< 5.00
5,"CCOC(=O)Cn1c(C(=O)OCC)c(OC[C@H]2CCCN2c2ncnc3[nH]cnc23)c2cc(F)ccc21 [A185, Ethyl 1-ethoxycarbonylmethyl-5-fluoro-3-[(R)-1-(9H-purin-6-yl)pyrrolidin-2-ylmethoxy]-1H-indole-2-carboxylate]",< 5.00
6,"O=C1OCCC1CCOc1ccc2cccc(OC[C@H]3CCCN3c3ncnc4[nH]cnc34)c2c1 (stereo partly drawn) [A186, 3-(2-{8-[(R)-1-(9H-Purin-6-yl)pyrrolidin-2-yl-methoxy]naphthalen-2-yloxy}ethyl)dihydrofuran-2-one]",5.00 to 6.00
7,"CC(C)(C)OC(=O)N[C@@H](CCC(N)=O)C(=O)N1CCc2cccc(OC[C@H]3CCCN3c3ncnc4[nH]cnc34)c2C1 [A187, tert-Butyl ((S)-3-carbamoyl-1-{8-[(R)-1-(9H-purin-6-yl)pyrrolidin-2-ylmethoxy]-3,4-dihydro-1H-isoquinoline-2-carbonyl}propyl)carbamate]",5.00 to 6.00
8,"CC(C)(C)OC(=O)N[C@H](CC(N)=O)C(=O)N1CCc2cccc(OC[C@H]3CCCN3c3ncnc4[nH]cnc34)c2C1 [A188, tert-Butyl ((R)-1-carbamoylmethyl-2-oxo-2-{8-[(R)-1-(9H-purin-6-yl)pyrrolidin-2-ylmethoxy]-3,4-dihydro-1H-isoquinolin-2-yl}ethyl)carbamate]",5.00 to 6.00
9,"CC(C)(C)OC(=O)N[C@@H](Cc1c[nH]cn1)C(=O)N1CCc2cccc(OC[C@H]3CCCN3c3ncnc4[nH]cnc34)c2C1 [A189, tert-Butyl ((S)-1-(1H-imidazol-4-ylmethyl)-2-oxo-2-{8-[(R)-1-(9H-purin-6-yl)pyrrolidin-2-yl-methoxy]-3,4-dihydro-1H-isoquinolin-2-yl}ethyl)-carbamate]",5.00 to 6.00
10,"Cn1c(C(=O)O)c(OC[C@H]2CCCN2c2ncnc3[nH]cnc23)c2cc(F)ccc21 [A190, 5-Fluoro-1-methyl-3-[(R)-1-(9H-purin-6-yl)-pyrrolidin-2-ylmethoxy]-1H-indole-2-carboxylic acid]",< 5.00
11,"c1ccc2c(OC[C@H]3CCCN3c3ncnc4[nH]cnc34)cc(CNCCN3CCOCC3)nc2c1 [A191, (2-Morpholin-4-ylethyl)-{4-[(R)-1-(9H-purin-6-yl)pyrrolidin-2-ylmethoxy]quinolin-2-yl-methyl}amine]",6.00 to 8.00
12,"O=C1CC[C@@H](C(=O)N2CCc3cccc(OC[C@H]4CCCN4c4ncnc5[nH]cnc45)c3C2)N1 [A192, (S)-5-{8-[(R)-1-(9H-Purin-6-yl)pyrrolidin-2-yl-methoxy]-3,4-dihydro-1H-isoquinoline-2-carbonyl}pyrrolidin-2-one]",6.00 to 8.00
13,"CC(C)(C)OC(=O)NCCCC[C@H](NC(=O)OCc1ccccc1)C(=O)N1CCc2cccc(OC[C@H]3CCCN3c3ncnc4[nH]cnc34)c2C1 [A193, tert-Butyl ((S)-5-benzyloxycarbonylamino-6-oxo-6-{8-[(R)-1-(9H-purin-6-yl)pyrrolidin-2-yl-methoxy]-3,4-dihydro-1H-isoquinolin-2-yl}hexyl)-carbamate]",< 5.00
14,"NC(=O)C[C@@H](N)C(=O)N1CCc2cccc(OC[C@H]3CCCN3c3ncnc4[nH]cnc34)c2C1 [A194, (R)-3-Amino-4-oxo-4-{8-[(R)-1-(9H-purin-6-yl)-pyrrolidin-2-ylmethoxy]-3,4-dihydro-1H-isoquinolin-2-yl}butyramide]",6.00 to 8.00
15,"N[C@@H](Cc1c[nH]cn1)C(=O)N1CCc2cccc(OC[C@H]3CCCN3c3ncnc4[nH]cnc34)c2C1 [A195, (S)-2-Amino-3-(1H-imidazol-4-yl)-1-{8-[(R)-1-(9H-purin-6-yl)pyrrolidin-2-ylmethoxy]-3,4-dihydro-1H-isoquinolin-2-yl}propan-1-one]",6.00 to 8.00
16,"O=C(O)CCCCOc1ccc2cccc(OC[C@H]3CCCN3c3ncnc4[nH]cnc34)c2c1 [A196, 5-{8-[(R)-1-(9H-Purin-6-yl)pyrrolidin-2-yl-methoxy]naphthalen-2-yloxy}pentanoic acid]",< 5.00
17,"Cn1c(C(=O)NCc2ccc(F)cc2)c(OC[C@H]2CCCN2c2ncnc3[nH]cnc23)c2cc(F)ccc21 [A197, N-(4-Fluorobenzyl)-5-fluoro-1-methyl-3-[(R)-1-(9H-purin-6-yl)pyrrolidin-2-ylmethoxy]-1H-indole-2-carboxamide]",< 5.00
18,"Cn1c(C(=O)OCCc2ccc(F)cc2)c(OC[C@H]2CCCN2c2ncnc3[nH]cnc23)c2cc(F)ccc21 [A198, 2-(4-Fluorophenyl)ethyl 5-fluoro-1-methyl-3-[(R)-1-(9H-purin-6-yl)pyrrolidin-2-ylmethoxy]-1H-indole-2-carboxylate]",< 5.00
19,"NCCCC[C@H](NC(=O)OCc1ccccc1)C(=O)N1CCc2cccc(OC[C@H]3CCCN3c3ncnc4[nH]cnc34)c2C1 [A199, Benzyl ((S)-5-amino-1-{8-[(R)-1-(9H-purin-6-yl)-pyrrolidin-2-ylmethoxy]-3,4-dihydro-1H-isoquinolin-2-carbonyl}pentyl)carbamate]",5.00 to 6.00
20,"O=C(Cn1c(C(=O)NCCc2ccc(F)cc2)c(OC[C@H]2CCCN2c2ncnc3[nH]cnc23)c2cc(F)ccc21)NCCc1ccc(F)cc1 [A200, N-[2-(4-Fluorophenyl)ethyl]-5-fluoro-1-{[2-(4-fluorophenyl)ethylcarbamoyl]methyl}-3-[(R)-1-(9H-purin-6-yl)pyrrolidin-2-ylmethoxy]-1H-indole-2-carboxamide]",< 5.00
21,"NC(=O)C[C@H](N)C(=O)N1CCc2cccc(OC[C@H]3CCCN3c3ncnc4[nH]cnc34)c2C1 [A201, (S)-3-Amino-4-oxo-4-{8-[(R)-1-(9H-purin-6-yl)-pyrrolidin-2-ylmethoxy]-3,4-dihydro-1H-isoquinolin-2-yl}butyramide]",5.00 to 6.00
22,"NC(=O)CCC(=O)N1CCc2cccc(OC[C@H]3CCCN3c3ncnc4[nH]cnc34)c2C1 [A202, 4-Oxo-4-{8-[(R)-1-(9H-purin-6-yl)pyrrolidin-2-yl-methoxy]-3,4-dihydro-1H-isoquinolin-2-yl}-butyramide]",5.00 to 6.00
23,"Fc1ccc(CCNCCn2cc(OC[C@H]3CCCN3c3ncnc4[nH]cnc34)c3cc(F)ccc32)cc1 [A203, [2-(4-Fluorophenyl)ethyl]-(2-{5-fluoro-3-[(R)-1-(9H-purin-6-yl)pyrrolidin-2-ylmethoxy]indol-1-yl}-ethyl)amine]",< 5.00

# Test system: not listed separately
# Experiment: Shake flask solubility measurement
# Type: physicochemical
# Details: shake flask, buffer; shaken at 37° C. for 24 h
# Experimental: Determination by Shake Flask Solubility Measurement
# • Eluent A: 2 ml of diethylamine, for synthesis+1000 ml of methanol, LiChrosolv • Eluent B: 5 g of ammonium acetate, for analysis+5 ml of methanol, LiChrosolv+995 ml of ultrapure water Sample Solvent:
# Buffer: 3.954 g of sodium dihydrogenphosphate monohydrate+6.024 g of sodium chloride+950 ml of ultrapure water the pH is adjusted using 0.1 M NaOH or 0.1 M HCl.
# The samples are shaken at 37° C. and 450 rpm for 24 h.
# After about 7 h, the pH of the samples is checked and adjusted if necessary. It is also checked whether the sample is still present in excess.
# Just before the end of the 24 h shaking time, the samples are again checked for pH and a precipitate.
row,SMILES,solubility [µg/mL]
1,CC(O)CNC(=O)c1cc(OC[C@H]2CCCN2c2ncnc3[nH]cnc23)c2ccccc2n1 (some centres unmarked),325
2,"Clc1cccc(OC[C@H]2CCCN2c2ncnc3[nH]cnc23)c1Cl [6-[(R)-2-(2,3-dichlorophenoxymethyl)pyrrolidin-yl]-9H-purine, reference compound]",< 1

# Same assay, conditions: sodium phosphate/sodium chloride buffer, aqueous buffer, thermodynamic from solid; buffer system at pH 7; shaken at 37° C. for 24 h
row,SMILES,solubility at 24 h [µg/mL]
1,c1ccc2c(OC[C@H]3CCCN3c3ncnc4[nH]cnc34)ccc(CNCCN3CCOCC3)c2c1 [(2-morpholin-4-ylethyl)-{4-[(R)-1-(9H-purin-6-yl)pyrrolidin-2-ylmethoxy]naphthalen-1-ylmethyl}amine],283

# Same assay, conditions: sodium phosphate/sodium chloride buffer, aqueous buffer, thermodynamic from solid; shake flask, buffer; shaken at 37° C. for 24 h
row,SMILES,solubility at 24 h [µg/mL]
1,O=C(c1ccc(CC[C@H]2CCCN2c2ncnc3[nH]cnc23)c2ccccc12)N1CCOCC1 [Morpholin-4-yl-(4-{2-[(S)-1-(9H-purin-6-yl)pyrrolidin-2-yl]ethyl}naphthalen-1-yl)-methanone],108
2,"CNC(=O)/C=C1/CCc2c(OC[C@H]3CCCN3c3ncnc4[nH]cnc34)cccc2C1=O [N-methyl-2-[1-oxo-5-[(R)-1-(9H-purin-6-yl)pyrrolidin-2-ylmethoxy]-3,4-dihydro-1H-naphthalen-(2Z)-ylidene]acetamide]",29
3,"O=C(O)/C=C1/CCc2c(OC[C@H]3CCCN3c3ncnc4[nH]cnc34)cccc2C1=O [[1-oxo-5-[(R)-1-(9H-purin-6-yl)pyrrolidin-2-ylmethoxy]-3,4-dihydro-1H-naphthalen-(2Z)-ylidene]acetic acid]",> 3800

# Test system: not given
# Experiment: not given
# Details: not given
row,SMILES,melting point [°C]
1,"O=C(c1ccc(CCC2CCCN2c2ncnc3[nH]cnc23)c2ccccc12)N1CCOCC1 (racemic) [A6, morpholin-4-yl-(4-{2-[-1-(9H-purin-6-yl)pyrrolidin-2-yl]ethyl}naphthalen-1-yl)methanone]",158 to 160
2,"O=Cc1ccc(OC[C@H]2CCCN2c2ncnc3[nH]cnc23)c2ccccc12 [A2, 4-[(R)-1-(9H-purin-6-yl)pyrrolidin-2-ylmethoxy]naphthalene-1-carbaldehyde]",167 to 168
3,"F[C@H]1C[C@H](COc2ccccc2Cl)N(c2ncnc3[nH]cnc23)C1 [A7, 6-[(2R,4S)-2-(2-chlorophenoxymethyl)-4-fluoropyrrolidin-1-yl]-9H-purine]",143 to 144

# Reference: patent publication US8846694B2, “Pyrrolidone derivatives for use as MetAP-2 inhibitors” (Merck Patent GmbH, priority 2008, dated 2014)
